Data on seven compounds can be found in publication PMC6678253, “The 1,3,5-Triazine Derivatives as Innovative Chemical Family of 5-HT6 Serotonin Receptor Agents with Therapeutic Perspectives for Cognitive Impairment” (International Journal of Molecular Sciences, 2019).

The test system of data set [1] is hepatoma HepG2 cell line. Nature of the data set: ATP level in HepG2 (CellTiter-Glo). The following applies: 2 h exposure, 10 µM. A general note: ATP-based viability assays read luminescence as a measure of living cells.
Experimental: (§2) The cells’ viability was determined by CellTiter 96® AQueous Non-Radioactive Cell Proliferation Assay (MTS), which was purchased from Promega (Madison, WI, USA). The absorbance was measured using a microplate reader EnSpire (PerkinElmer, Waltham, MA USA) at 490 nm. All compounds were tested in quadruplicate. For ATP-level measurement the cells were growth in similar way as in cytotoxicity assays. The CellTiter-Glo® Luminescent Cell Viability Assay and protocol was provided by Promega (Madison, WI, USA). The luminescence was measured after 2 hours-long cells’ exposition on tested compounds and the positive control CCCP by a microplate reader EnSpire (PerkinElmer, Waltham, MA USA) at luminescence mode. All compounds were tested in triplicate.
The target in a further data set is 5-HT6. On the set-up: method as in PMID 28441580, PMID 30530073, PMID 31229876. The following applies: human receptor stably expressed in HEK-293; determined previously; read-out: Ki 5-HT6 [3H]-LSD; cited from earlier work.
In data set [2] the target is T1, 5-HT1A (Homo sapiens, UniProt P08908).
T1 construct: expressed in transfected cells; host or cells: HEK-293
T1 sequence (P08908 1-422): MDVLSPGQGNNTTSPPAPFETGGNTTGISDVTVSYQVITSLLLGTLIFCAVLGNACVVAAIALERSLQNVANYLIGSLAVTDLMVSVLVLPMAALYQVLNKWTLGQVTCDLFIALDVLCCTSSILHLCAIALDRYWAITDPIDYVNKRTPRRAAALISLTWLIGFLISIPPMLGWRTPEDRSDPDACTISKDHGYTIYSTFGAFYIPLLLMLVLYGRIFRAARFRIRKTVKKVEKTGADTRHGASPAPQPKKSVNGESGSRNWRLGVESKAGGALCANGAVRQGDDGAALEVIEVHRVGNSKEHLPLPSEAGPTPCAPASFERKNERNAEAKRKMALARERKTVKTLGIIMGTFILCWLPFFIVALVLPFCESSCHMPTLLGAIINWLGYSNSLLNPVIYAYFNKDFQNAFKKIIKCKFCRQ
On the set-up: method as in PMID 28441580, PMID 30530073, PMID 31229876. The following applies: human receptor stably expressed in HEK-293; determined previously; read-out: Ki 5-HT1A [3H]-8-OH-DPAT; cited from earlier work.

Data set [3] relates to human embryonic kidney HEK-293 cell line. The data set is described as follows: Cytotoxicity, MTS assay in HEK-293.
Experimental: as §2
In data set [4] the target is T2, D2L (Homo sapiens, UniProt P14416).
T2 construct: expressed in transfected cells; host or cells: HEK-293
T2 sequence (P14416 whole entry): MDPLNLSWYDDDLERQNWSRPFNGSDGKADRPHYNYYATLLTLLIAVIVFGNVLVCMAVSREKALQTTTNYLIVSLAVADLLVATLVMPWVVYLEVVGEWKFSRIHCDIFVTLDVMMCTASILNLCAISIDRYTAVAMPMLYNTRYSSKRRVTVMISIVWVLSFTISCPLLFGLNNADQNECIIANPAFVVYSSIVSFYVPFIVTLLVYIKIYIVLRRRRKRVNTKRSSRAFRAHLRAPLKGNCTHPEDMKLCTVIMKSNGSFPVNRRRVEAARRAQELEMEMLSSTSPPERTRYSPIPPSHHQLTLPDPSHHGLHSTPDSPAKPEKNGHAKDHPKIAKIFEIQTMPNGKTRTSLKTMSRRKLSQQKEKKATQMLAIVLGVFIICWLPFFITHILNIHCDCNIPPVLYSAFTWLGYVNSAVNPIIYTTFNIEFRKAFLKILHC
On the set-up: method as in PMID 28441580, PMID 30530073, PMID 31229876. The following applies: human receptor stably expressed in HEK-293; determined previously; read-out: Ki D2L [3H]-Raclopride; cited from earlier work.

Data set [5] in a line: Metabolic stability in human liver microsomes (HLMs). The conditions noted are these: for Clint: HLMs 1 mg/mL, 50 µM compound, Clint ≤ 8.6 = low clearance; for half-life at 50 µM: human, human liver microsomes. In general terms: Microsomes from liver hold many membrane-bound enzymes, among them those of drug oxidation.
Experimental: The t1/2 values and intrinsic clearances (Clint) were calculated using IS by protocols and formulas proposed by Obach [30].
A further data set addresses P-glycoprotein (Pgp) (Homo sapiens, UniProt P08183). The data set is described as follows: Luminescent Pgp-Glo Assay System. The following applies: 100 μM, 40 min, 37 °C; for Pgp basal activity: > 100% = substrate, increase statistically insignificant.
In a further data set the target is T3, 5-HT2A (Homo sapiens, UniProt P28223).
T3 construct: expressed in transfected cells; host or cells: HEK-293
T3 sequence (P28223 whole entry): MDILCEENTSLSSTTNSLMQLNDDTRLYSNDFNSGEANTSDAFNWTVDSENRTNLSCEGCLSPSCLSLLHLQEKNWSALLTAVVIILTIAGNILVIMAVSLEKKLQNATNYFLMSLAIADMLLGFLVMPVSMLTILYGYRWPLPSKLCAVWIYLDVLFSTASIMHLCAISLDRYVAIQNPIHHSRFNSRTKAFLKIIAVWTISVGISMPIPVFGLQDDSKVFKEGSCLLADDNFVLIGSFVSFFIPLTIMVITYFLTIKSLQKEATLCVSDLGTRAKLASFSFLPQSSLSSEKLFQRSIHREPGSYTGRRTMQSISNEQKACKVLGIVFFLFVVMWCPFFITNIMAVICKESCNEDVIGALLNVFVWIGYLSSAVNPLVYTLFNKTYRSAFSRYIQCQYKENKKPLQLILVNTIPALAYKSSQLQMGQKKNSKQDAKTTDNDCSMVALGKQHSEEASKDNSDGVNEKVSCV
Nature of the data set: Radioligand binding assay, 5-HT2A ([3H]-ketanserin displacement). The conditions noted are these: human receptor stably expressed in HEK-293.

A short description of data set [6]: Parallel artificial membrane permeability assay (PAMPA). The format is in vitro ADME. The following applies: PBS pH 7.4, 5 h, room temperature, breakpoint for permeable compounds Pe ≥ 1.5 × 10^−6 cm/s, read-out: Pe (permeability coefficient) ± SD. A general note: In PAMPA a lipid-coated filter parts donor from acceptor wells.
Data set [7] concerns the target T4, 5-HT7 (Homo sapiens, UniProt P34969).
T4 construct: expressed in transfected cells; host or cells: HEK-293
On the set-up: method as in PMID 28441580, PMID 30530073, PMID 31229876. The following applies: human receptor stably expressed in HEK-293; determined previously; read-out: Ki 5-HT7 [3H]-5-CT; cited from earlier work.

The target of the next data set is T5, CYP2D6 (Homo sapiens, UniProt P10635).
T5 construct: purchased Promega (Madison, WI, USA)
T5 sequence (P10635 whole entry): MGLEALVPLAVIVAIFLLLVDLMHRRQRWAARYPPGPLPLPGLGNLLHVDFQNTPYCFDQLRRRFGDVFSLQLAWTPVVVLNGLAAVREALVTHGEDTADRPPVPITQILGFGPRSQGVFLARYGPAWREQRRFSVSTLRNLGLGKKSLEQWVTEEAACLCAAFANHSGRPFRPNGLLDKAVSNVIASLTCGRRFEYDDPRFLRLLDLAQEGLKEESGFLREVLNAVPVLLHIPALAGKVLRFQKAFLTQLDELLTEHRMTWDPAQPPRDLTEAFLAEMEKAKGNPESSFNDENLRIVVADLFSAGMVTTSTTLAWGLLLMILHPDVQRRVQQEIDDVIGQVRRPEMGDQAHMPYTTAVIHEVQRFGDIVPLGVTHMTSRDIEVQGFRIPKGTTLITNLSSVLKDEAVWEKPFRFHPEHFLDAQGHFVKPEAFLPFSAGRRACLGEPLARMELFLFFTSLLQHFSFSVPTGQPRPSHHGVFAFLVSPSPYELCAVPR
Nature of the data set: CYP2D6 P450-Glo assay. The format is in vitro ADME. The following applies: for CYP2D6 activity (inhibition): at 25 µM. The text has this: (§1) The potential risk of drug-drug interactions (DDI) were examined by luminescence-based CYP3A4 and CYP2D6 P450-Glo™ assays (Promega®). These two CYP isoforms are responsible for metabolism of approximately half of all marketed drugs, and an influence on their activity may be a source of DDI danger. […] The luminescent CYP3A4 P450-Glo™ and CYP2D6 P450-Glo™ Promega® (Madison, WI, USA) were used for investigation of potential drug-drug interactions. All assays and protocols were described before.

Data set [8] can be described thus: Vogel conflict drinking test. The following applies: rats.
Experimental: It was consisted of polycarbonate cages (dimensions 26.5 cm × 15 cm × 42 cm), equipped with a grid floor made from stainless steel bars and drinking bottles containing tap water. Experimental chambers were connected to PC software by control chassis and electric shocks’ generator. On the first day of the experiment, the rats were adapted to the test chambers and drink water from the bottle spout for 10 min. Afterwards, the rats were returned to their home cages and were given 30 min free access to water followed by a 24-h water deprivation period. The adaptation session and water deprivation protocols were repeated on the second day of the experiment. On the third day the rats were placed again in the test chambers 60 min after investigated and reference compounds administration and were given free access to the drinking tube. Recording data started immediately after the first lick and rats were punished with an electric shock (0.5 mA, lasting 1 s) delivered to the metal drinking tube every 20 licks. The number of licks and the number of shocks received during a 5-min experimental session were recorded automatically.
For a further data set, the target named is T6, CYP3A4 (Homo sapiens, UniProt P08684).
T6 construct: purchased Promega (Madison, WI, USA)
T6 sequence (P08684 whole entry): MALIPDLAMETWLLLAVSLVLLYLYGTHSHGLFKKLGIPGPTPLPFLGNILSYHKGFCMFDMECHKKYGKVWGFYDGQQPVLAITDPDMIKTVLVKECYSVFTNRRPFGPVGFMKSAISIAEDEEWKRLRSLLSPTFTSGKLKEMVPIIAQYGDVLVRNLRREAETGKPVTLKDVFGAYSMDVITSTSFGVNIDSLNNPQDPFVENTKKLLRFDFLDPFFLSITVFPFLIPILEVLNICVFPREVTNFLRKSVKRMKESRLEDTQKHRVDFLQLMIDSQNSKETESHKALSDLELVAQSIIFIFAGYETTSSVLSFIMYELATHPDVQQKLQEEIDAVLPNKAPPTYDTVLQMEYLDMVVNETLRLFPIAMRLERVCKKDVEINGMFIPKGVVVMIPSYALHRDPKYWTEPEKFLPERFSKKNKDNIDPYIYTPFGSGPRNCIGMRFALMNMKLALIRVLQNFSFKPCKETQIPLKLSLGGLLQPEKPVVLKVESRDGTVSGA
Nature of the data set: CYP3A4 P450-Glo assay. The format is in vitro ADME. The following applies: 0.01-25 μM; effect of 4 at 10 and 25 µM.
Text: as §1

The target of data set [9] is T1, 5-HT1A. The data set is described as follows: Radioligand binding assay, 5-HT1A ([3H]-8-OH-DPAT displacement). The conditions noted are these: human receptor stably expressed in HEK-293.
The subject of data set [10] is hepatoma HepG2 cell line. The data set is described as follows: Hepatotoxicity, MTS assay in HepG2. The conditions noted are these: 72 h; 100 µM.
Experimental: as §2
Data set [11] addresses T4, 5-HT7. The data set is described as follows: Radioligand binding assay, 5-HT7 ([3H]-5-CT displacement). The conditions noted are these: human receptor stably expressed in HEK-293.
Data set [12] has as its target T2, D2L. The data set is described as follows: Radioligand binding assay, D2L ([3H]-raclopride displacement). The conditions noted are these: human receptor stably expressed in HEK-293.
Data set [13] can be described thus: Novel object recognition test (NORT), scopolamine-induced memory impairment. The format is in vivo, rat. The conditions noted are these: rats, 1 mg/kg; ANOVA NS. An excerpt: Taking into account the ability of various 5-HT6R antagonists to improve cognitive deficits, the NORT assay was used to study the influence of the investigated compounds on visual episodic memory. This test is based on the spontaneous exploration of novel and familiar objects. The administration of scopolamine reduces an ability to discriminate a novel object from a familiar one, and any compounds that have a protective effect against this deficit are regarded as potentially useful for treating cognitive deficits that are characteristic for Alzheimer’s disease and other dementia connected disorders.
Five days before the experiment, the rats were transferred to the laboratory, labeled and, thereafter, left to acclimate to the new environment. The animals were handling every five days before experiments to minimize the stress reaction. The protocol was adapted from the original work. The test session comprising of two trials separated by an inter-trial interval (ITI) of 1 h was carried out on the next day. […]
The animals explored the objects by looking, licking, sniffing or touching the object but not when leaning against, standing or sitting on the object. […] Exploration time of the objects was measured by blind experimenter. Based on exploration time (E) of two objects during T2, discrimination index (DI) was calculated according to the formula: DI = (EB − EA)/(EA + […]). […]

The mark [14] stands for this setting: 72 h, only at 100 µM, 1 p < 0.001, 2 p < 0.05.

Like-named read-outs stand apart in the source and are kept apart here.

T4 sequence (P34969 1-432): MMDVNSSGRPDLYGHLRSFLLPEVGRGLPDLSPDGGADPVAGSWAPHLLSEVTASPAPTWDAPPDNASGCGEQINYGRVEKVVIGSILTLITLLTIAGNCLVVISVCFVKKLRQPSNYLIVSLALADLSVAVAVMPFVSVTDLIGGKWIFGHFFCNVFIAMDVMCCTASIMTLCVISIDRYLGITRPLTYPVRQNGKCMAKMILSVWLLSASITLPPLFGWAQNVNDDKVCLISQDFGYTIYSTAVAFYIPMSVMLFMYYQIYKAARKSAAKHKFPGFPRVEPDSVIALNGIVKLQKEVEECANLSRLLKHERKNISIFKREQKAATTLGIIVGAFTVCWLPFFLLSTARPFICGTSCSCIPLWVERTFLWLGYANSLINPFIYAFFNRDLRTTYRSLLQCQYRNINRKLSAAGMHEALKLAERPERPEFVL
P-glycoprotein (Pgp), sequence (P08183 whole entry): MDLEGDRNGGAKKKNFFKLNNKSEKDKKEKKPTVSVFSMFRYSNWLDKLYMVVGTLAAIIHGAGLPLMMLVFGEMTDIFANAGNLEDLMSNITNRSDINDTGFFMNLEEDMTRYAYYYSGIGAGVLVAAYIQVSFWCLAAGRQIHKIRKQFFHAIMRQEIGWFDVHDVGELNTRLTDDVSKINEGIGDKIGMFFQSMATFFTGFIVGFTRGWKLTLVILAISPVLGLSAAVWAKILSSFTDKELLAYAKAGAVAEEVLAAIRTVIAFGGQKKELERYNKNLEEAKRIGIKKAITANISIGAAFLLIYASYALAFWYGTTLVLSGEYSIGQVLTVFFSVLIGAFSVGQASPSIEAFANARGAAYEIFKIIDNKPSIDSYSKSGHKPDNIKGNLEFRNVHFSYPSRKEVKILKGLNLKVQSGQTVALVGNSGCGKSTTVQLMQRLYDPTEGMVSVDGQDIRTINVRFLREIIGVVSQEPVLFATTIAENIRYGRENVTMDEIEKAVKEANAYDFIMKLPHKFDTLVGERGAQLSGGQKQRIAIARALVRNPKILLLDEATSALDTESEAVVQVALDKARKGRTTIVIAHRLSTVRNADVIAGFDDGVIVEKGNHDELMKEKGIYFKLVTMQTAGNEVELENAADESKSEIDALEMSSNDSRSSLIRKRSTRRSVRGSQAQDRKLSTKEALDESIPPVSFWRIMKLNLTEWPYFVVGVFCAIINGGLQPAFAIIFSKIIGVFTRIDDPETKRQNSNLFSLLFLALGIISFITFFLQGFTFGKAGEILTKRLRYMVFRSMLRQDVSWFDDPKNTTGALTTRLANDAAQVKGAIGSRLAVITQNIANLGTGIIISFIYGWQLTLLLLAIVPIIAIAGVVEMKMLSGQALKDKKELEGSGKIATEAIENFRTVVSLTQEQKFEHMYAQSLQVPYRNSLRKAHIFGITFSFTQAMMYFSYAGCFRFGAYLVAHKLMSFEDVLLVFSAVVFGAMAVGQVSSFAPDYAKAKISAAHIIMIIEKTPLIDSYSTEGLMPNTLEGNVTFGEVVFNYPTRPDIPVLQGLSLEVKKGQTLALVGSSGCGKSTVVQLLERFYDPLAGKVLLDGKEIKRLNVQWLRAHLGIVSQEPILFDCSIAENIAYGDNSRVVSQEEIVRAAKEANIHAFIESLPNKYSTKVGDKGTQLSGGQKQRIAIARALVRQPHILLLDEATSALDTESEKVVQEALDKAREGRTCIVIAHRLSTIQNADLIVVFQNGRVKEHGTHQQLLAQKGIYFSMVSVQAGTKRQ
Experimental for P-glycoprotein (Pgp): Moreover, the luminescence Pgp-Glo™ Assay was used in order to determine their influence on P-glycoprotein (Pgp) activity, the main efflux pump in the transport across blood–brain barrier (BBB) and the intestinal epithelium.
The luminescent Pgp-Glo™ Assay System used for determination of 5HT6R ligands’ influence on P-glycoprotein activity was purchased from Promega (Madison, WI, USA). […] The luminescence signal was measured by microplate reader EnSpire PerkinElmer (Waltham, MA, USA).

Turning to `N#CC(C#N)=NNc1cccc(Cl)c1` [CCCP, carbonyl cyanide 3-chlorophenylhydrazone], in the data set on hepatoma HepG2 cell line [1], the “ATP level in HepG2” value is listed as ~ 33 % of control.
Consider `CN1CCN(c2nc(N)nc(Cc3cccc(Cl)c3)n2)CC1` [Compound 1], for which the Ki at 5-HT6 was 28 nM; at 5-HT1A [2] it was 4950 nM; on D2L [4], 838 nM; at 5-HT2A, 272 nM; at 5-HT7 [7], 8710 nM. In addition, in [3] (setting [14]), the HEK-293 cells viability result is reported as “significant effect”. This compound also showed a Clint in [5] of 7.56 mL/min/kg. This compound showed a half-life at 50 µM in data set [5] of 1.38 h. Also, the Pgp basal activity at P-glycoprotein (Pgp) is ~ 135%. Also, the Papp at 5 h, 200 µM in data set [6] is 23.6 ± 2.14 ×10⁻⁶ cm/s.
On to `Cc1cccc(Cc2nc(N)nc(N3CCN(C)CC3)n2)c1` [Compound 2], for which the Ki was 10200 nM on 5-HT1A [2], 1190 nM at D2L [4], 329 nM at 5-HT2A and 16200 nM at 5-HT7 [7]. Moreover, the HEK-293 cells viability entry in data set [3] (setting [14]) was “significant effect”. The compound also returned a Clint in data set [5] of 3.96 mL/min/kg. The compound further displayed a half-life at 50 µM in data set [5] of 2.63 h. For the same compound, the “effect on Pgp basal activity” value at P-glycoprotein (Pgp) (p < 0.001) is recorded as “inhibited significantly”. Also, the “CYP2D6 activity (induction)” value at CYP2D6 (at 10 and 25 µM) is listed as ~ 148 % of the control activity. The Papp at 5 h, 200 µM in data set [6] amounted to 19.9 ± 2.68 ×10⁻⁶ cm/s.
Take `CN1CCN(c2nc(N)nc(Cc3c[nH]c4ccccc34)n2)CC1` [Compound 3, 4-((1H-indol-3-yl)methyl)-6-(4-methylpiperazin-1-yl)-1,3,5-triazin-2-amine]: the Ki at 5-HT6 is 22 nM. In data set [5], this compound yielded a Clint of 2.34 mL/min/kg and a half-life at 50 µM of 4.45 h. Further, the Pgp basal activity on P-glycoprotein (Pgp) is listed as ~ 135%. For the same compound, the “increase of the number of shocks” value in data set [8] (1 mg/kg i.p., p < 0.05) is reported as “about 82%”. Moreover, in data set [8] (i.p. 60 min before test), the “anxiolytic-like activity in Vogel conflict drinking test” value (“anxiolytic-like activity” for short) is “anxiolytic-like activity was shown”. Further, the Ki at 5-HT2A worked out at 1760 nM. Moreover, the “CYP2D6 activity (inhibition)” value at CYP2D6 was ~ 75 % of the control activity. Further, the Papp at 5 h, 200 µM in data set [6] is 17.9 ± 5.76 ×10⁻⁶ cm/s.
For `Cc1ccc(C(C)C)c(OCc2nc(N)nc(N3CCN(C)CC3)n2)c1` [Compound 4, 4-((2-isopropyl-5-methylphenoxy)methyl)-6-(4-methylpiperazin-1-yl)-1,3,5-triazin-2-amine], at CYP3A4, the “influence on CYP3A4 activity” value was “slight induction effect”. In addition, the Ki on 5-HT1A [9] was 12500 nM; at 5-HT6, 11 nM; at 5-HT2A, 430 nM; on 5-HT7 [11], 12000 nM; on D2L [12], 1090 nM. Moreover, the “lowest toxic dose vs 5-HT6R Ki” value in data set [3] (10 μM vs Ki = 11 nM) is ~ 1000 fold. Also, in [3] (72 h, at 10 and 100 µM, p < 0.001), the HEK-293 cells viability entry is listed as “statistically significant decrease in cells viability”. Further, in data set [3] (cytotoxicity, 72 h), the lowest toxic dose was 10 µM. In addition, in [5], the Clint turned out to be 6.30 mL/min/kg. Also, the half-life at 50 µM in [5] amounted to 1.65 h. Also, the “HepG2 viability (hepatotoxic effect)” value in the data set on hepatoma HepG2 cell line [10] is reported as “hepatotoxic effect”. For the same compound, at P-glycoprotein (Pgp), the Pgp basal activity is reported as ~ 135%. For the same compound, in [8] (0.3 mg/kg i.p., p < 0.0001), the “increase of the number of licks” value was “about 76%”. For the same compound, the “anxiolytic-like activity” value in data set [8] (i.p. 60 min before test) was “anxiolytic-like activity was shown”. Moreover, at CYP2D6, the “CYP2D6 activity (inhibition)” value was ~ 75 % of the control activity. Further, the Papp at 5 h, 200 µM in [6] stood at 12.3 ± 1.98 ×10⁻⁶ cm/s.
`COc1ccc(S(=O)(=O)Nc2cc(Cl)cc(Cl)c2OC)cc1N1CCNCC1` [SB-399885, N-[3,5-dichloro-2-(methoxy)-phenyl]-4-(methoxy)-1-(piperazinyl)benzenesulfonamide, reference compound]: the “anxiolytic-like activity” value is “exerted anxiolytic-like activity” in [8] (1 and 3 mg/kg i.p.); “anxiolytic-like activity was shown” in data set [8] (i.p. 60 min before test).
As for `CCN(C)C(=O)Oc1cccc([C@H](C)N(C)C)c1` [rivastigmine], the “effect on scopolamine induced learning deficits in NORT” value in data set [13] was “similar, but lower pro-cognitive effects”.

As usually defined, the Ki is the dissociation constant of the complex between target and ligand, obtained from inhibition or displacement. As usually defined, the half-life is the time in which the quantity being followed falls by half.
